According to US20240116947A1, “PYRIDO OXAZINE DERIVATIVES AS ALK5 INHIBITORS” (CHIESI FARMACEUTICI S.P.A., priority 2020, published 2024):

Target: human ALK5 (Homo sapiens (Human), UniProt P36897)
Experiment: ADP-GLO Kinases assay, inhibition of ALK5 enzymatic activity
Type: biochemical
Conditions: Table 4; potency bins; purified recombinant human ALK5, ADP-Glo, 25° C.; read-out: ALK5 IC50
Method: The enzymatic activity of compounds of the present invention was monitored measuring the formation of ADP using the ADP-GLO Kinases assay. Following the incubation of the purified enzyme, a substrate and ATP, the produced ADP was converted into ATP, which in turn was converted into light by Ultra-Glo Luciferase. The luminescent signal positively correlated with ADP amount and kinase activity. Briefly, the kinase reaction was performed by incubating 2.6 nM of the purified, commercially available human ALK5 (recombinant TGF β1 N-term GST-tagged, 80-end), a final concentration of TGFβ1 peptide 94.5 μM (Promega, T36-58) and ultra-pure ATP (Promega V915B). […] All reactions/incubations were performed at 25° C. Compound and ALK5 kinase were mixed and incubated for 15 mins. Reactions were initiated by addition of ATP at a final concentration in the assay of 0.83 μM. After an incubation of 150 min, the reaction was stopped, and ADP production detected with ADP-Glo kit according to manufacturer's indications. The assay was performed in 384-well format and was validated using a selection of reference compounds that was tested in 11 point concentration-response curve.

human ALK5, sequence (P36897 80-503 limits assumed): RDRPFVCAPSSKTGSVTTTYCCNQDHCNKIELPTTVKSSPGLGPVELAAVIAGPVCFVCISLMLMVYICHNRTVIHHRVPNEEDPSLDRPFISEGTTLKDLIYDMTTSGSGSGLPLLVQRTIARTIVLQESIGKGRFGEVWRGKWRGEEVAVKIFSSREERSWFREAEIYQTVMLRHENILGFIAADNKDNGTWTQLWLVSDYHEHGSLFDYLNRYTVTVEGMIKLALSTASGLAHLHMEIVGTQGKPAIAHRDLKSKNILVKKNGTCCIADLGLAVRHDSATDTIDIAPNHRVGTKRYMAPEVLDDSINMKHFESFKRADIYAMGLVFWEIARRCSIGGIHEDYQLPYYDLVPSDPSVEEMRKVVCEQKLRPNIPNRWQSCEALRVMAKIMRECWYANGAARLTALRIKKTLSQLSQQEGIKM

Structure (SMILES)	IC50 [nM]
Nc1cc(N2CCOc3cnc(-c4cccc(Cl)c4)cc32)ccn1 [Example 5, 4-[7-(3-chlorophenyl)-1H,2H,3H-pyrido[3,4-b][1,4]oxazin-1-yl]pyridin-2-amine]	5 to 10
O=C(CCN1CCOCC1)Nc1cc(N2CCOc3cnc(-c4cc(Cl)ccc4F)cc32)ccn1 [Example 8, N-{4-[7-(5-chloro-2-fluorophenyl)-1H,2H,3H-pyrido[3,4-b][1,4]oxazin-1-yl]pyridin-2-yl}-3-(morpholin-4-yl)propanamide]	< 1
CN(C)CCC(=O)Nc1cc(N2CCOc3cnc(-c4cc(Cl)ccc4F)cc32)ccn1 [Example 9, N-{4-[7-(5-chloro-2-fluorophenyl)-1H,2H,3H-pyrido[3,4-b][1,4]oxazin-1-yl]pyridin-2-yl}-3-(dimethylamino)propanamide]	< 1
Nc1cc(N2CCOc3cnc(-c4cc(C5CC5)ccc4F)cc32)ccn1 [Example 12, 4-[7-(5-cyclopropyl-2-fluorophenyl)-1H,2H,3H-pyrido[3,4-b][1,4]oxazin-1-yl]pyridin-2-amine]	1 to 5
CN1CCN(CCC(=O)Nc2cc(N3CCOc4cnc(-c5cc(Cl)ccc5F)cc43)ccn2)CC1 [Example 14, N-{4-[7-(5-chloro-2-fluorophenyl)-1H,2H,3H-pyrido[3,4-b][1,4]oxazin-1-yl]pyridin-2-yl}-3-(4-methylpiperazin-1-yl)propanamide]	< 1
CN(CCC(=O)Nc1cc(N2CCOc3cnc(-c4cc(Cl)ccc4F)cc32)ccn1)C1COC1 [Example 19, N-{4-[7-(5-chloro-2-fluorophenyl)-1H,2H,3H-pyrido[3,4-b][1,4]oxazin-1-yl]pyridin-2-yl}-3-[methyl(oxetan-3-yl)amino]propanamide]	< 1
COC(=O)CN(C)CCC(=O)Nc1cc(N2CCOc3cnc(-c4cc(Cl)ccc4F)cc32)ccn1 [Example 23, methyl 2-{[2-({4-[7-(5-chloro-2-fluorophenyl)-1H,2H,3H-pyrido[3,4-b][1,4]oxazin-1-yl]pyridin-2-yl}carbamoyl)ethyl](methyl)amino} acetate]	< 1
CN1CCN(CCC(=O)Nc2cc(N3CCOc4cnc(-c5cc(Cl)ccc5F)cc43)ccn2)C(=O)C1 [Example 25, N-{4-[7-(5-chloro-2-fluorophenyl)-1H,2H,3H-pyrido[3,4-b][1,4]oxazin-1-yl]pyridin-2-yl}-3-(4-methyl-2-oxopiperazin-1-yl)propanamide]	< 1
CS(=O)(=O)CCNCCC(=O)Nc1cc(N2CCOc3cnc(-c4cc(Cl)ccc4F)cc32)ccn1 [Example 26, N-{4-[7-(5-chloro-2-fluorophenyl)-1H,2H,3H-pyrido[3,4-b][1,4]oxazin-1-yl]pyridin-2-yl}-3-[(2-methanesulfonylethyl)amino] propanamide]	< 1
CN(CCC(=O)Nc1cc(N2CCOc3cnc(-c4cc(Cl)ccc4F)cc32)ccn1)CCS(C)(=O)=O [Example 27, N-{4-[7-(5-chloro-2-fluorophenyl)-1H,2H,3H-pyrido[3,4-b][1,4]oxazin-1-yl]pyridin-2-yl}-3-[(2-methanesulfonylethyl)(methyl)amino]propanamide]	1 to 5
CN(CCNS(C)(=O)=O)CCC(=O)Nc1cc(N2CCOc3cnc(-c4cc(Cl)ccc4F)cc32)ccn1 [Example 29, N-{4-[7-(5-chloro-2-fluorophenyl)-1H,2H,3H-pyrido[3,4-b][1,4]oxazin-1-yl]pyridin-2-yl}-3-[(2-methanesulfonamidoethyl)(methyl)amino]propanamide]	< 1
CS(=O)(=O)NCCN1CCN(CCC(=O)Nc2cc(N3CCOc4cnc(-c5cc(Cl)ccc5F)cc43)ccn2)CC1 [Example 30, N-{4-[7-(5-chloro-2-fluorophenyl)-1H,2H,3H-pyrido[3,4-b][1,4]oxazin-1-yl]pyridin-2-yl}-3-[4-(2-methanesulfonamidoethyl)piperazin-1-yl]propanamide]	< 1
CNC(=O)CCN1CCN(CCC(=O)Nc2cc(N3CCOc4cnc(-c5cc(Cl)ccc5F)cc43)ccn2)CC1 [Example 31, 3-{4-[2-({4-[7-(5-chloro-2-fluorophenyl)-1H,2H,3H-pyrido[3,4-b][1,4]oxazin-1-yl]pyridin-2-yl}carbamoyl)ethyl]piperazin-1-yl}-N-methylpropanamide]	< 1
CN1CCC(CCC(=O)Nc2cc(N3CCOc4cnc(-c5cc(Cl)ccc5F)cc43)ccn2)CC1 [Example 32, N-{4-[7-(5-chloro-2-fluorophenyl)-1H,2H,3H-pyrido[3,4-b][1,4]oxazin-1-yl]pyridin-2-yl}-3-(1-methylpiperidin-4-yl)propanamide]	< 1
CN1CCN(CCC(=O)Nc2cc(N3CCOc4cnc(-c5cc(C6CC6)ccc5F)cc43)ccn2)CC1 [Example 33, N-{4-[7-(5-cyclopropyl-2-fluorophenyl)-1H,2H,3H-pyrido[3,4-b][1,4]oxazin-1-yl]pyridin-2-yl}-3-(4-methylpiperazin-1-yl)propanamide]	< 1
CC(C)c1ccc(F)c(-c2cc3c(cn2)OCCN3c2ccnc(NC(=O)CCN3CCN(C)CC3)c2)c1 [Example 34, N-(4-{7-[2-fluoro-5-(propan-2-yl)phenyl]-1H,2H,3H-pyrido[3,4-b][1,4]oxazin-1-yl}pyridin-2-yl)-3-(4-methylpiperazin-1-yl)propanamide]	< 1

More lines, now with the values ahead:

IC50 [nM]	Structure (SMILES)
5 to 10	Fc1ccc(Cl)cc1-c1cc2c(cn1)OCCN2c1ccncc1 [Example 1, 4-[7-(5-chloro-2-fluorophenyl)-1H,2H,3H-pyrido[3,4-b][1,4]oxazin-1-yl]pyridine]
5 to 10	Nc1nc(-c2cc(Cl)ccc2F)cc2c1OCCN2c1ccncc1 [Example 2, 7-(5-chloro-2-fluorophenyl)-1-(pyridin-4-yl)-1H,2H,3H-pyrido[3,4-b][1,4]oxazin-5-amine]
1 to 5	Nc1cc(N2CCOc3cnc(-c4cc(Cl)ccc4F)cc32)ccn1 [Example 3, 4-[7-(5-chloro-2-fluorophenyl)-1H,2H,3H-pyrido[3,4-b][1,4]oxazin-1-yl]pyridin-2-amine]
5 to 10	Nc1cc(N2CCOc3cnc(-c4cc(F)ccc4F)cc32)ccn1 [Example 4, 4-[7-(2,5-difluorophenyl)-1H,2H,3H-pyrido[3,4-b][1,4]oxazin-1-yl]pyridin-2-amine]
5 to 10	Nc1cc(N2CCOc3cnc(-c4nc(Cl)ccc4F)cc32)ccn1 [Example 7, 4-[7-(6-Chloro-3-fluoropyridin-2-yl)-1H,2H,3H-pyrido[3,4-b][1,4]oxazin-1-yl]pyridin-2-amine]
< 1	O=C(CCN1CCNCC1)Nc1cc(N2CCOc3cnc(-c4cc(Cl)ccc4F)cc32)ccn1 [Example 10, N-{4-[7-(5-chloro-2-fluorophenyl)-1H,2H,3H-pyrido[3,4-b][1,4]oxazin-1-yl]pyridin-2-yl}-3-(piperazin-1-yl)propanamide]
5 to 10	Cc1ccc(F)c(-c2cc3c(cn2)OCCN3c2ccnc(N)c2)c1 [Example 11, 4-[7-(2-fluoro-5-methylphenyl)-1H,2H,3H-pyrido[3,4-b][1,4]oxazin-1-yl]pyridin-2-amine]
1 to 5	CC(C)c1ccc(F)c(-c2cc3c(cn2)OCCN3c2ccnc(N)c2)c1 [Example 13, 4-{7-[2-fluoro-5-(propan-2-yl)phenyl]-1H,2H,3H-pyrido[3,4-b][1,4]oxazin-1-yl}pyridin-2-amine]
1 to 5	Fc1ccc(Cl)cc1-c1cc2c(cn1)OCCN2c1ccnc2[nH]ncc12 [Example 15, 7-(5-chloro-2-fluorophenyl)-1-{1H-pyrazolo[3,4-b]pyridin-4-yl}-1H,2H,3H-pyrido[3,4-b][1,4]oxazine]
5 to 10	Fc1ccc(Cl)cc1-c1cc2c(cn1)OCCN2c1ccnc2[nH]cnc12 [Example 17, 7-(5-chloro-2-fluorophenyl)-1-{3H-imidazo[4,5-b]pyridin-7-yl}-1H,2H,3H-pyrido[3,4-b][1,4]oxazine]
< 1	O=C(CCN(CCO)CCO)Nc1cc(N2CCOc3cnc(-c4cc(Cl)ccc4F)cc32)ccn1 [Example 18, 3-[bis(2-hydroxyethyl)amino]-N-{4-[7-(5-chloro-2-fluorophenyl)-1H,2H,3H-pyrido[3,4-b][1,4]oxazin-1-yl]pyridin-2-yl}propanamide]
< 1	CN(CCO)CCC(=O)Nc1cc(N2CCOc3cnc(-c4cc(Cl)ccc4F)cc32)ccn1 [Example 20, N-{4-[7-(5-chloro-2-fluorophenyl)-1H,2H,3H-pyrido[3,4-b][1,4]oxazin-1-yl]pyridin-2-yl}-3-[(2-hydroxyethyl)(methyl)amino] propanamide]
< 1	CN1CCN(CCC(=O)Nc2cc(N3CCOc4cnc(-c5cc(Cl)ccc5F)cc43)ccn2)CC1=O [Example 22, N-{4-[7-(5-chloro-2-fluorophenyl)-1H,2H,3H-pyrido[3,4-b][1,4]oxazin-1-yl]pyridin-2-yl}-3-(4-methyl-3-oxopiperazin-1-yl)propanamide]
< 1	CS(=O)(=O)NCCC(=O)Nc1cc(N2CCOc3cnc(-c4cc(Cl)ccc4F)cc32)ccn1 [Example 24, N-{4-[7-(5-chloro-2-fluorophenyl)-1H,2H,3H-pyrido[3,4-b][1,4]oxazin-1-yl]pyridin-2-yl}-3-methanesulfonamidopropanamide]
< 1	O=C(CCN1CCN(CCO)CC1)Nc1cc(N2CCOc3cnc(-c4cc(Cl)ccc4F)cc32)ccn1 [Example 28, N-{4-[7-(5-chloro-2-fluorophenyl)-1H,2H,3H-pyrido[3,4-b][1,4]oxazin-1-yl]pyridin-2-yl}-3-[4-(2-hydroxyethyl)piperazin-1-yl]propanamide]
